A short description of the data set: Efficacy and toxicology studies (Table 9), intramuscular in rat. To be noted: mouse efficacy and rat toxicology studies; formulated in DV-140-F2.

In the case of `CCCCCCCCCCN(CC(N)=O)C(=O)CN(CCCCCCCCCC)C(=O)CN(CCCCCCCCCC)C(=O)CN(CCCCCCCCCC)C(=O)CNCCO` [Compound 140], the tolerability entry was “well-tolerated”.

The record behind these values is patent US20240307526A1, “COMPOSITIONS COMPRISING HYDROXYETHYL-CAPPED CATIONIC PEPTOIDS” (priority 2021, published 2024).
